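Tested at 5 concentrations; 48 h exposure; 96-well plates; endpoints linearly interpolated, else capped at highest concentration. GI50 is the concentration that inhibits growth by half. The concentration for full growth arrest is given as TGI.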
What was measured:
Assay in all cases: growth of human tumour cells (NCI), 48 h
NCI-H226 lung = test system: NCI-H226 lung
SR leukemia = test system: SR leukemia
K-562 leukemia = test system: K-562 leukemia
A549 NSCLC = test system: A549 NSCLC
SF-295 CNS = test system: SF-295 CNS
ACHN renal = test system: ACHN renal
IGROV1 ovarian = test system: IGROV1 ovarian
RPMI-8226 leukemia = test system: RPMI-8226 leukemia
MDA-MB-231 breast = test system: MDA-MB-231 breast
COLO 205 colon = test system: COLO 205 colon
MDA-MB-468 breast = test system: MDA-MB-468 breast
T-47D breast = test system: T-47D breast
SNB-19 CNS = test system: SNB-19 CNS
M14 melanoma = test system: M14 melanoma
HOP-92 NSCLC = test system: HOP-92 NSCLC
SF-268 CNS = test system: SF-268 CNS
KM12 colon = test system: KM12 colon
OVCAR-5 ovarian = test system: OVCAR-5 ovarian
SNB-75 CNS = test system: SNB-75 CNS
NCI-H23 lung = test system: NCI-H23 lung
LOX IMVI melanoma = test system: LOX IMVI melanoma
MCF7 breast = test system: MCF7 breast
BT-549 breast = test system: BT-549 breast
SF-539 CNS = test system: SF-539 CNS
SK-MEL-2 melanoma = test system: SK-MEL-2 melanoma
PC-3 prostate = test system: PC-3 prostate
TK-10 renal = test system: TK-10 renal
DU-145 prostate = test system: DU-145 prostate
OVCAR-4 ovarian = test system: OVCAR-4 ovarian
UACC-62 melanoma = test system: UACC-62 melanoma
U251 CNS = test system: U251 CNS
SK-OV-3 ovarian = test system: SK-OV-3 ovarian
NCI-H460 lung = test system: NCI-H460 lung
SW-620 colon = test system: SW-620 colon
NCI-H522 lung = test system: NCI-H522 lung
UACC-257 melanoma = test system: UACC-257 melanoma
SK-MEL-5 melanoma = test system: SK-MEL-5 melanoma
HCC-2998 colon = test system: HCC-2998 colon
NCI/ADR-RES ovarian = test system: NCI/ADR-RES ovarian
MDA-MB-435 = test system: MDA-MB-435
SK-MEL-28 melanoma = test system: SK-MEL-28 melanoma
HCT-15 colon = test system: HCT-15 colon
HL-60(TB) leukemia = test system: HL-60(TB) leukemia
OVCAR-3 ovarian = test system: OVCAR-3 ovarian
CAKI-1 renal = test system: CAKI-1 renal
OVCAR-8 ovarian = test system: OVCAR-8 ovarian
HT29 colon = test system: HT29 colon
RXF 393 renal = test system: RXF 393 renal
A498 renal = test system: A498 renal
SN12C renal = test system: SN12C renal
CCRF-CEM leukemia = test system: CCRF-CEM leukemia
HS 578T breast = test system: HS 578T breast
MALME-3M melanoma = test system: MALME-3M melanoma
HOP-62 NSCLC = test system: HOP-62 NSCLC
786-0 renal = test system: 786-0 renal
UO-31 renal = test system: UO-31 renal
MOLT-4 leukemia = test system: MOLT-4 leukemia
HCT-116 colon = test system: HCT-116 colon
EKVX NSCLC = test system: EKVX NSCLC

Cc1cc(N=C2NC(=O)/C(=C/c3cc(C(C)(C)C)c(O)c(C(C)(C)C)c3)S2)n[nH]1
GI50 (NCI-H226 lung): 1890 nM
TGI (NCI-H226 lung): 15.1 µM
GI50 (SR leukemia): 3.33 µM
TGI (SR leukemia): 40.6 µM
GI50 (K-562 leukemia): 2470 nM
TGI (K-562 leukemia): > 100 µM
GI50 (A549 NSCLC): 2610 nM
TGI (A549 NSCLC): 18.3 µM
GI50 (SF-295 CNS): 1070 nM
TGI (SF-295 CNS): 10.8 µM
GI50 (ACHN renal): 3.25 µM
TGI (ACHN renal): 14.4 µM
GI50 (IGROV1 ovarian): 2470 nM
TGI (IGROV1 ovarian): 16.8 µM
GI50 (RPMI-8226 leukemia): 2430 nM
TGI (RPMI-8226 leukemia): 13.3 µM
GI50 (MDA-MB-231 breast): 5.7 µM
TGI (MDA-MB-231 breast): 20 µM
GI50 (COLO 205 colon): 4.41 µM
TGI (COLO 205 colon): 18.9 µM
GI50 (MDA-MB-468 breast): 2550 nM
TGI (MDA-MB-468 breast): 13.2 µM
GI50 (T-47D breast): 2410 nM
TGI (T-47D breast): 24.9 µM
GI50 (SNB-19 CNS): 3.26 µM
TGI (SNB-19 CNS): 15.8 µM
GI50 (M14 melanoma): 4.58 µM
TGI (M14 melanoma): 19.2 µM
GI50 (HOP-92 NSCLC): 1870 nM
TGI (HOP-92 NSCLC): 14.7 µM
GI50 (SF-268 CNS): 4.69 µM
TGI (SF-268 CNS): 24.2 µM
GI50 (KM12 colon): 4.28 µM
TGI (KM12 colon): 18 µM
GI50 (OVCAR-5 ovarian): 5.61 µM
TGI (OVCAR-5 ovarian): 19.4 µM
GI50 (SNB-75 CNS): 4.6 µM
TGI (SNB-75 CNS): 20.1 µM
GI50 (NCI-H23 lung): 2450 nM
TGI (NCI-H23 lung): 13.3 µM
GI50 (LOX IMVI melanoma): 2290 nM
TGI (LOX IMVI melanoma): 14.5 µM
GI50 (MCF7 breast): 1930 nM
TGI (MCF7 breast): 12.2 µM
GI50 (BT-549 breast): 2630 nM
TGI (BT-549 breast): 12.2 µM
GI50 (SF-539 CNS): 4.6 µM
TGI (SF-539 CNS): 16.4 µM
GI50 (SK-MEL-2 melanoma): 4.35 µM
TGI (SK-MEL-2 melanoma): 18.8 µM
GI50 (PC-3 prostate): 1780 nM
TGI (PC-3 prostate): 22.3 µM
GI50 (TK-10 renal): 6.19 µM
TGI (TK-10 renal): 23.8 µM
GI50 (DU-145 prostate): 4.87 µM
TGI (DU-145 prostate): > 100 µM
GI50 (OVCAR-4 ovarian): 3.09 µM
TGI (OVCAR-4 ovarian): 17.7 µM
GI50 (UACC-62 melanoma): 3.58 µM
TGI (UACC-62 melanoma): 15.3 µM
GI50 (U251 CNS): 2150 nM
TGI (U251 CNS): 13.6 µM
GI50 (SK-OV-3 ovarian): 5.58 µM
TGI (SK-OV-3 ovarian): 21.1 µM
GI50 (NCI-H460 lung): 755 nM
TGI (NCI-H460 lung): 10.5 µM
GI50 (SW-620 colon): 3.71 µM
TGI (SW-620 colon): 14.2 µM
GI50 (NCI-H522 lung): 5.35 µM
TGI (NCI-H522 lung): 20.5 µM
GI50 (UACC-257 melanoma): 4.63 µM
TGI (UACC-257 melanoma): 19 µM
GI50 (SK-MEL-5 melanoma): 1630 nM
TGI (SK-MEL-5 melanoma): 3.66 µM
GI50 (HCC-2998 colon): 4.22 µM
TGI (HCC-2998 colon): 16.4 µM
GI50 (NCI/ADR-RES ovarian): 1350 nM
TGI (NCI/ADR-RES ovarian): 14.3 µM
GI50 (MDA-MB-435): 4.04 µM
TGI (MDA-MB-435): 16.4 µM
GI50 (SK-MEL-28 melanoma): 4.67 µM
TGI (SK-MEL-28 melanoma): 17.1 µM
GI50 (HCT-15 colon): 1500 nM
TGI (HCT-15 colon): 13.2 µM
GI50 (HL-60(TB) leukemia): 4.27 µM
TGI (HL-60(TB) leukemia): 23.8 µM
GI50 (OVCAR-3 ovarian): 3.68 µM
TGI (OVCAR-3 ovarian): 18.1 µM
GI50 (CAKI-1 renal): 2710 nM
TGI (CAKI-1 renal): 19.1 µM
GI50 (OVCAR-8 ovarian): 3.69 µM
TGI (OVCAR-8 ovarian): 19.6 µM
GI50 (HT29 colon): 4.79 µM
TGI (HT29 colon): 25 µM
GI50 (RXF 393 renal): 2190 nM
TGI (RXF 393 renal): 11.8 µM
GI50 (A498 renal): 1490 nM
TGI (A498 renal): 11.1 µM
GI50 (SN12C renal): 2700 nM
TGI (SN12C renal): 14.8 µM
GI50 (CCRF-CEM leukemia): 1900 nM
TGI (CCRF-CEM leukemia): 14.9 µM
GI50 (HS 578T breast): 1980 nM
TGI (HS 578T breast): 13.2 µM
GI50 (MALME-3M melanoma): 2700 nM
TGI (MALME-3M melanoma): 14.2 µM
GI50 (HOP-62 NSCLC): 3.67 µM
TGI (HOP-62 NSCLC): 21.1 µM
GI50 (786-0 renal): 3.81 µM
TGI (786-0 renal): 15.7 µM
GI50 (UO-31 renal): 2100 nM
TGI (UO-31 renal): 14.5 µM
GI50 (MOLT-4 leukemia): 2390 nM
TGI (MOLT-4 leukemia): 14 µM
GI50 (HCT-116 colon): 1880 nM
TGI (HCT-116 colon): 12.8 µM
GI50 (EKVX NSCLC): 1900 nM
TGI (EKVX NSCLC): 10.8 µM
